These results are taken from patent US9895324B2, “Halogenated diarylacetylenes and methods of treating cancer” (UNIVERSITY OF KENTUCKY RESEARCH FOUNDATION, priority 2014, dated 2018).

One series concerns LS174T cells. Put plainly: Cell proliferation assay, LS174T colon cancer cells. The series is classed as cell-based. As to the method:
Cell Proliferation Assay.
LS174T cells were grown in RPMI medium (Mediatech) supplemented with 5% fetal bovine serum and 1% penicillin/streptomycin. For cell proliferation assays, 3×10^4 cells/well growing in 12-well plates were treated with DMSO or inhibitors. The cell numbers and viability were analyzed by Vi-Cell Cell Viability Analyzer after 4 days. The IC50 values were calculated with GraphPad Prim 5.

The target in series [1] is catalytic subunit of methionine S-adenosyltransferase-2 (MAT-2) (Homo sapiens, UniProt P31153). Particulars: cited from earlier work.
Chain of catalytic subunit of methionine S-adenosyltransferase-2 (MAT-2) (P31153 whole entry): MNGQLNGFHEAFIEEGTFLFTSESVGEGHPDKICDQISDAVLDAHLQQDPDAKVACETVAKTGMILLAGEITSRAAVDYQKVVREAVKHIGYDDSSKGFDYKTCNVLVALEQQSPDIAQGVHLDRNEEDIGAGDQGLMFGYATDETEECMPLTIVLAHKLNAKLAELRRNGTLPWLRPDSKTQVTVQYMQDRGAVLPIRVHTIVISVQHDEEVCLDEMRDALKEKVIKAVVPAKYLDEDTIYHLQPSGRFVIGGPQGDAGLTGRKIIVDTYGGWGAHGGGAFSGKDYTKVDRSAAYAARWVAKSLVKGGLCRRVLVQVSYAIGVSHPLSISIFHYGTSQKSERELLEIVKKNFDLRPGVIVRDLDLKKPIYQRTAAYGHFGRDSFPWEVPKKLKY
A further series concerns the target MAT2 (Homo sapiens, UniProt P31153). Put plainly: MAT2A inhibition assay. In kind it is biochemical. Particulars: compared with stilbene 1. The text has this: We reported previously that stilbenes repressed colon cancer cell proliferation by inhibiting c-myc expression and inducing the cell cycle inhibitor, p21(Wif1/Cip1). See Zhang et al. J Med Chem 2011: 54:1288-1297. The similarity of the diarylacetylenes to the stilbenes also prompted an in silico modeling study of the binding of (E)-4-(2′,6′-difluorostyryl)-N,N-dimethylaniline (1) and 4((2,6-difluorophenyl)ethynyl)-N,N-dimethylaniline (2m). It was believed that para-oriented amino-substituents, such as the N-methylamino and N,N-dimethylamino groups, were associated with potent MAT2A inhibition. […] Variability in the MAT2A inhibition assay made the measurement of c-myc inhibition a preferred analytical tool for assessing the potency of diarylacetylenes.

The mark [2] stands for this setting: Homo sapiens, LS174T, 96 h, 4 days, read-out: Inhibition of LS174T Cell Proliferation IC50.
The mark [3] stands for this setting: 4 days, read-out: Inhibition of LS174T Cell Proliferation IC50.

“Also recorded” adds a separate entry of the source. Read-outs that look alike come from different tables or passages of the source.

Chain of MAT2 (P31153 whole entry): as above

For orientation: melting point means the temperature of the solid-liquid transition. On to `CN(C)c1ccc(C#Cc2ccc(F)cc2F)cc1` [Compound 2i, 4-((2,4-Difluorophenyl)ethynyl)-N,N-dimethylaniline], for which the melting point lay in the range of 116 to 118 °C. In addition, the IC50 with LS174T cells (setting [2]) is 56 ± 8.1 nM.
With `CN(C)c1ccc(/C=C/c2c(F)cccc2F)cc1` [Compound 1, (E)-4-(2′,6′-difluorostyryl)-N,N-dimethylaniline, reference compound], in series [1], the Molecular target entry was “targeted exclusively the catalytic subunit of methionine S-adenosyltransferase-2 (MAT-2)”. For the same compound, the IC50 with LS174T cells (setting [2]) stood at 59 ± 7.5 nM.
For the compound `CN(C)c1ccc(C#Cc2cc(F)cc(F)c2)cc1` [Compound 2k, 4-((3,5-Difluorophenyl)ethynyl)-N,N-dimethylaniline], the melting point lay in the range of 72 to 74 °C. Moreover, in the series on LS174T cells, the “Potency as inhibitor of LS174T cell proliferation (in words)” value (“Potency as inhibitor” for short) is recorded as “significantly less active”. Also, the IC50 in the series on LS174T cells (setting [2]) was above 3000 nM.
As to `CN(C)c1ccc(C#Cc2c(F)cccc2Cl)cc1` [Compound 2n, 4-((2-Chloro-6-fluorophenyl)ethynyl)-N,N-dimethylaniline], the melting point was 86 to 88 °C.
`CN(C)c1ccc(C#Cc2ccccc2)cc1` [Compound 2c, N,N-Dimethyl-4-(phenylethynyl)aniline]: the melting point lay in the range of 104 to 106 °C. For the same compound, the “Potency as inhibitor” value in the series with LS174T cells was “very low potency”. In addition, the IC50 with LS174T cells (setting [2]) is above 3000 nM.
For the compound `CN(C)c1ccc(C#Cc2cccc(F)c2F)cc1` [Compound 2h, 4-((2,3-Difluorophenyl)ethynyl)-N,N-dimethylaniline], the melting point is 104 to 106 °C. The IC50 in the series on LS174T cells (setting [2]) is 119 ± 4.6 nM.
Turning to `CN(C)c1ccc(C#Cc2cc(F)ccc2F)cc1` [Compound 2l, 4-((2,5-Difluorophenyl)ethynyl)-N,N-dimethylaniline], the melting point is 106 to 107 °C. The IC50 with LS174T cells (setting [2]) was 55 ± 6 nM.
In turn, `CN(C)c1ccc(C#Cc2ccccc2Cl)cc1` [Compound 2e, 4-((2-Chlorophenyl)ethynyl)-N,N-dimethylaniline] yielded a melting point of 108 to 110 °C. The IC50 in the series on LS174T cells (setting [3]) came to 31 ± 3.1 nM. Moreover, the IC50 with LS174T cells (setting [2]) was below 50 nM.
Consider `CN(C)c1ccc(C#Cc2c(Cl)cccc2Cl)cc1` [Compound 2o, 4-((2,6-Dichlorophenyl)ethynyl)-N,N-dimethylaniline], for which the melting point fell in the range of 96 to 98 °C. In addition, the IC50 in the series on LS174T cells (setting [2]) amounted to 52 ± 7.1 nM.
Regarding `CN(C)c1ccc(C#Cc2ccccc2F)cc1` [Compound 2d, 4-((2-Fluorophenyl)ethynyl)-N,N-dimethylaniline], the melting point was in the range of 94 to 96 °C. Also, the IC50 in the series on LS174T cells (setting [3]) came to 39 ± 6 nM. The IC50 in the series on LS174T cells (setting [2]) is below 50 nM.
With `CN(C)c1ccc(C#Cc2ccc(F)c(F)c2)cc1` [Compound 2j, 4-((3,4-Difluorophenyl)ethynyl)-N,N-dimethylaniline], the melting point fell in the range of 100 to 101 °C. Further, in the series with LS174T cells, the “Potency as inhibitor” value was “significantly less active”. For the same compound, the IC50 with LS174T cells (setting [2]) is above 3000 nM.
`CN(C)c1ccc(C#Cc2ccc(F)cc2)cc1` [Compound 2g, 4-((4-Fluorophenyl)ethynyl)-N,N-dimethylaniline]: the melting point is 132 to 134 °C. The “Potency as inhibitor” value in the series on LS174T cells is “very low potency; also recorded: significantly less active”. In the series on LS174T cells (setting [2]), the IC50 was above 3000 nM.
For `CN(C)c1ccc(C#Cc2c(F)cccc2F)cc1` [Compound 2m, 4-((2,6-Difluorophenyl)ethynyl)-N,N-dimethylaniline], on MAT2, the “MAT2 inhibition (in words, data not shown)” value is “inhibited MAT2 at concentrations comparable to that of the stilbene 1”.
Compound `CNc1ccc(C#Cc2c(F)cccc2F)cc1` [Compound 2b, 4-((2,6-Difluorophenyl)ethynyl)-N-methylaniline] returned a melting point of 69 to 70 °C.
Regarding `Nc1ccc(C#Cc2c(F)cccc2F)cc1` [Compound 2a, 4-((2,6-Difluorophenyl)ethynyl)aniline], the melting point is 104 to 105 °C. The IC50 in the series with LS174T cells (setting [2]) came to 55 ± 7.8 nM. In addition, in the series on LS174T cells (Homo sapiens, LS174T, read-out: IC50 (inhibition of LS174T cell proliferation)), the IC50 is 55 ± 7.8 nM.
In the case of `CN(C)c1ccc(C#Cc2cccc(F)c2)cc1` [Compound 2f, 4-((3-Fluorophenyl)ethynyl)-N,N-dimethylaniline], the melting point was 99 to 100 °C. The “Potency as inhibitor” value in the series on LS174T cells is recorded as “significantly less active”. Further, the IC50 with LS174T cells (setting [2]) was above 3000 nM.
